Assay results reported in article PMC6930570, “2-Arylidene-1-indandiones as Pleiotropic Agents with Antioxidant and Inhibitory Enzymes Activities” (Molecules, 2019).

Columns and labels:
[1] = system: carrageenin-induced rat paw edema; assay: Inhibition of the carrageenin-induced rat paw edema (CPE); assay type: in vivo, Fisher 344 rats; settings: Rattus norvegicus, ip; 0.01 mmol/kg body weight, intraperitoneally, 3.5 h after carrageenin; read-out: CPE % (reduction of the rat paw edema)
From the text: Carrageenin-induced rat paw edema (CPE) model was used to study the in vivo anti-inflammatory activity of the tested derivatives and the results are presented in Table 3. […] Compounds 2, 7, 8, 10, and 12 presented small differences in their biological activity. The presence of the thienyl group as well as of the furyl leads to higher anti-inflammatory activity (1 and 3) while substitution with a phenyl group leads to two-fold decrease of the activity (28%).
Edema was induced in the right hind paw of Fisher 344 rats (150–200 g) by the intradermal injection of 0.1 mL 2% carrageenin in water. Both sexes were used while females pregnant were excluded. Each group was composed of 6–15 animals. The animals, which have been bred in our laboratory, were housed under standard conditions and received a diet of commercial food pellets and water ad libitum during the maintenance but they were entirely fasted during the experiment period. Our studies were in accordance with recognised guidelines on animal experimentation. (guidelines for the care and use of laboratory animals published by the Greek Government 160/1991, based on EU regulations 86/609). Rats were kept in the Centre of the School of Veterinary Medicine (EL54 BIO42), Aristotle University of Thessaloniki, which is registered by the official state veterinary authorities (presidential degree 56/2013, in harmonization with the European Directive 2010/63/EEC). The experimental protocols were approved by the Animal Ethics Committee of the Prefecture of Central Macedonia (no. 270079/2500). The tested compounds 0.01 mmol/kg body weight were suspended in water, with a few drops of Tween 80 and ground in a mortar before use and were given intraperitoneally simultaneously with the carrageenin injection. The rats were euthanized 3.5 h after carrageenin injection. The difference between the weight of the injected and uninjected paws was calculated for each animal. The change in paw weight was compared with that in control animals (treated with water) and expressed as a percent inhibition of the edema CPE % values […] [58, 59]. Indomethacin in 0.01 mmol/kg (47%). Values CPE % are the mean from two different experiments with a standard error of the mean less than 10% (Table 3).

[2] = Inhibition of linoleic acid peroxidation induced by AAPH; assay type: biochemical; settings: no = no action under the experimental conditions
From the text: In the water soluble 2,2′-azobis(2-amidinopropane) hydrochloride (AAPH) the free radicals are produced in vitro through spontaneous thermal decomposition resembling to lipid peroxidation in cells due to the action of the peroxyl radicals. […] Compounds 11, 5, 4 and 3 presented no activity under the experimental conditions. From the experimental results it can be concluded that the 3,5-di-tert-butyl-group offers protection against lipid peroxidation. Electronic parameters expressed by the highest occupied molecular orbital (HOMO) describes better the biological activity (Equation (2)). log AAPH % = −22.042(± 8.731) HOMO − 4.853 (2.622)(2) n = 8, r = 0.930, r^2 = 0.864, q^2 = 0.567, s = 0.146, F1,8 = 5.783, α = 0.1
The oxidation reaction was started with 2,2′-Azobis(2-amidinopropane) dihydrochloride (AAPH) as a free radical initiator. Linoleic acid sodium salt was oxidized at 234 nm to a conjugated diene hydroperoxide resulting an increased absorption. Trolox was used as reference compound (93%) (Table 3).

soybean lipoxygenase = target: T1, soybean lipoxygenase (Glycine max, UniProt P08170); assay: Soybean lipoxygenase inhibition in vitro; assay type: biochemical; settings: sodium linoleate substrate, no = no action under the experimental conditions, read-out: LOX (% Inhibition 100 µM)
T1 construct: purchased Sigma Chemical, Co. (St. Louis)
T1 sequence (P08170 1-839): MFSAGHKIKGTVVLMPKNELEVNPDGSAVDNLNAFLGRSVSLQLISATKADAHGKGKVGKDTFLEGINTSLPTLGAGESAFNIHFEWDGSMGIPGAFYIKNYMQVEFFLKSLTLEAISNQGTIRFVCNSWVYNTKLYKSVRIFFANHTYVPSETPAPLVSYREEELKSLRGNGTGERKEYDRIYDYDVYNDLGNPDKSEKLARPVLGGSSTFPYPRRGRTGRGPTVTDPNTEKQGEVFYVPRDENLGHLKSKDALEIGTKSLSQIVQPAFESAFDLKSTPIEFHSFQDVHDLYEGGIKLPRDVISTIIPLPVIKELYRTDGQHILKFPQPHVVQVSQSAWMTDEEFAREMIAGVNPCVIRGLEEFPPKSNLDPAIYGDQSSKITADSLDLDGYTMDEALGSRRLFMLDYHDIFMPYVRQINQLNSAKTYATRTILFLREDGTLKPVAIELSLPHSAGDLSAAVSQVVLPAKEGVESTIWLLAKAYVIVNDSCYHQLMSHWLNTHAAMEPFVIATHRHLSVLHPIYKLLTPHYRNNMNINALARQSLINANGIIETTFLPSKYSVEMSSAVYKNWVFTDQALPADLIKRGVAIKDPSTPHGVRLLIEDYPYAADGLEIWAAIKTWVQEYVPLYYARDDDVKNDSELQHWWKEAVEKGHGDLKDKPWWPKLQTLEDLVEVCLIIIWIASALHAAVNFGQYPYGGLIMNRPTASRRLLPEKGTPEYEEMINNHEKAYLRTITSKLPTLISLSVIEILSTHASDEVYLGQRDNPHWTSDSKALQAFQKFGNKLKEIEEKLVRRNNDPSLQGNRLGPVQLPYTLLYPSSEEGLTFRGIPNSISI
Method: Thus, we used soybean LOX in our in vitro experiments.
In vitro study was performed as reported previously by our group. Sodium linoleate (0.1 mM) and 0.2 mL of enzyme solution (1/9 × 104 w/v in saline) were used for the incubation of the tested derivatives.

trypsin = assay: In vitro inhibition of trypsin induced proteolysis; assay type: biochemical; settings: bovine albumin substrate, no = no action under the experimental conditions
Method: Serine proteases are implicated in the pathophysiology of inflammatory diseases and trypsin is well known years ago [66]. Trypsin has been associated with host defense reactions and tissue damage. In this study, the novel derivatives have been evaluated towards trypsin and thrombin. Compounds 8 and 9 present high activity.
The Kunitz method was used after modification using bovine albumin was used as substrate for trypsin. In this assay, first 200 μL of 0.075 mg/mL trypsin and 780 μL of phosphate buffer pH 7.6 including the tested compounds (20 μL in DMSO, final concentration 100 μM) were pre-incubated at 37 °C for 20 min and then added 1 mL of albumin (stock solution 6 g/100 mL in phosphate buffer 0.1 M, pH 7.6) and incubated at 37 °C for 30 min. Secondly 1mLof 5% trichloroacetic acid was added to the incubated solution to stop the enzyme’s reaction and allowed to set at room temperature for 1 h. Then the solution was filtered, and the absorption of the filtrate was measured at 280 nm using salicylic acid as a reference compound [61] (Table 3).

[3] = Reducing activity of the stable radical DPPH; assay type: biochemical
Method: The novel derivatives were studied for their interaction with the sTable 2,2-diphenyl-1-picrylhydrazyl free radical (DPPH)at concentration 50 µM, 100 µM and 200 µM after 20 and 60 min (Table 2). In this assay the DPPH radical is reduced transferring one electron from the antioxidant. Phenolic compounds such as catechol and derivatives generate phenoxide anions with strong antioxidant capacity. Nordihydroguaretic acid (NDGA), the reference compound acts by this mechanism. Compound 10 presents the highest scavenging activity at 100 µM after 20 min correlated with the presence of the phenolic OH. Compounds 3, 4, 5, 7 presented medium activities depending from time and concentration. The presence of the heteroatom O or S seems to influence the activity e.g., derivatives 1, 2, and 3. Replacement of phenyl ring (4) by a thienyl group (1) decreases antioxidant behavior. […] On the contrary the presence of the furyl ring (3) enhances reduction. Additionally, the presence of a π-dimethyl-amino group 6 reduces the scavenging ability whereas its absence in (5), increases the activity. The presence of two conjugated double bonds (5) leads to lower activity compared to the simpler compound 4. Compounds 9 and 10 present the highest milogP values (5.94). Both include a phenolic hydrogen in their structure. […] On the contrary in compound 9 steric reasons are possible to lead to a decrease. Lipophilicity seems to influence the interaction of compound 10.
To a solution of DPPH in absolute ethanol an equal volume of the compounds with final concentrations of 50, 100 and 200 µM from a stock solution of 10 mM (in 1% DMSO and ethanol) was added. After 20 and 60 min the absorbance was recorded at 517 nm at room temperature (Table 2).

[4] = Experimental lipophilicity as RM values by RPTLC; assay type: physicochemical; set-up: key: RM = log[(1/Rf) − 1], from Rf values by RPTLC; settings: methanol/water 70/30, 24 °C, average of at least 5 measurements
From the text: Lipophilicity is a physicochemical parameter indicating the relationship of a drug to its biological activity. It affects ligand-target binding interactions, solubility, ADME (absorption, distribution, bioavailability, metabolism, and elimination) and toxicological effects. RPTLC (reverse phase thin layer chromatography) method was used for the experimental determination, as RM values. The RPTLC method is considered a secure, rapid and appropriate method for expressing the lipophilic character of a compound (Table 1).
Reversed phase TLC (RPTLC) was performed on silica gel plates impregnated with 5% (v/v) liquid paraffin in light petroleum ether. The mobile phase was a methanol/water mixture (70/30, v/v). The plates were developed in closed chromatography tanks saturated with the mobile phase at 24 °C. Spots were detected under UV light. Five individual measurements of Rf values were recorded and used for the determination of RM using the equation RM = log [(1/Rf) − 1] [59, 60, 62] (Table 2).

[5] = ABTS+. decolorization assay; assay type: biochemical; settings: 1 min, no = no action under the experimental conditions
From the text: The radical cation ABTS^+• is directly generated through potassium persulfate by oxidation with no participation of an intermediary radical and then the reduction is followed by adding electron-donating antioxidants. In this assay the radical is generated before adding the antioxidant (decolorization assay). […] It seems that lipophilicity influences the activity, since both are presenting high lipophilicity values. […] The radical cation ABTS^+• was generated from an ABTS stock solution in water (7 mM) which was mixed with potassium persulfate (2.45 mM) and left in the dark at room temperature for 12–16 h before use. The results are recorded after 1min of the mixing solutions at 734 nm and compared to the appropriate standard inhibitor Trolox (Table 3).

COc1ccc2c(c1)c(CC(=O)O)c(C)n2C(=O)c1ccc(Cl)cc1 [Indomethacin, reference compound]
inhibition in vivo at 10 µmol/kg [1]: 47%

O=C1C(=C/C=C\c2ccccc2)C(=O)c2ccccc21 [Compound 5, (Z)-2-(3-phenylallylidene)-1H-indene-1,3(2H)-dione]
AAPH% 100 µM (anti-lipid peroxidation) [2]: no activity and no
inhibition at 100 µM (soybean lipoxygenase): 26.4%
Iptr% 100 µM (inhibition of trypsin induced proteolysis) (trypsin): do not present any activity and no
melting point: 165 to 167 °C
RA% 50 µM 20 min [3]: 21%
RA% 50 µM 60 min [3]: 25%
RA% 100 µM 20 min [3]: 44%
RA% 100 µM 60 min [3]: 48%
RA% 200 µM 20 min [3]: 57%
RA% 200 µM 60 min [3]: 72%
RM (±SD) [4]: 0.158 ± 0
ABTS+. % 100 µM (decolorization activity) [5]: no

O=C(O)c1ccccc1O [Salycilic Acid, salicylic acid, reference compound]
Iptr% 100 µM (inhibition of trypsin induced proteolysis) (trypsin): 54%

O=C1C(=Cc2ccc3[nH]ccc3c2)C(=O)c2ccccc21 [Compound 11, (Z)-2-((1H-indol-5-yl)methylene)-1H-indene-1,3(2H)-dione]
AAPH% 100 µM (anti-lipid peroxidation) [2]: no activity and no
inhibition at 100 µM (soybean lipoxygenase): 38.6%
Iptr% 100 µM (inhibition of trypsin induced proteolysis) (trypsin): 6%
melting point: 223 to 225 °C
RA% 50 µM 20 min [3]: 2%
RA% 50 µM 60 min [3]: 2%
RA% 100 µM 20 min [3]: 19%
RA% 100 µM 60 min [3]: 19%
RA% 200 µM 20 min [3]: 10%
RA% 200 µM 60 min [3]: 10%
RM (±SD) [4]: −0.196 ± 0.02
ABTS+. % 100 µM (decolorization activity) [5]: 8%

CC(Cc1ccc(O)c(O)c1)C(C)Cc1ccc(O)c(O)c1 (stereo not shown) [NDGA, Nordihydroguaretic acid, reference compound]
RA% 50 µM 20 min [3]: 81%
RA% 50 µM 60 min [3]: 83%
RA% 100 µM 20 min [3]: 87%
RA% 100 µM 60 min [3]: 93%
RA% 200 µM 20 min [3]: 94%
RA% 200 µM 60 min [3]: 96%

Cc1c(C)c2c(c(C)c1O)CCC(C)(C(=O)O)O2 (stereo not shown) [Trolox, reference compound]
AAPH% 100 µM (anti-lipid peroxidation) [2]: 93%
ABTS+. % 100 µM (decolorization activity) [5]: 91%
